Laboratory results taken from patent US20260294906A1, “TREATING PSORIASIS USING A SMALL MOLECULE INHIBITOR OF TUMOR NECROSIS FACTOR ALPHA” (SANOFI, priority 2023, published 2026).
Entries after “also recorded” stand apart in the source; their conditions may differ.

Legend:
Format in all cases: in vivo, human
IL-17A = experiment: Serum levels of biomarker IL-17A (single molecule counting sandwich immunoassay)
Description: (§1) The primary objective of the study was to assess the safety, tolerability, and clinical efficacy of Compound 1 at 200 mg BID via oral administration. Also evaluated was the clinical effect of Compound 1 as compared to placebo on the percent change in PASI and TLS scores from baseline to week 2 and week 4. The percent change in PASI score from baseline to week 4 was determined. TLS score was also assessed over the same time period. Also assessed was the effect of Compound 1 on biomarkers of psoriasis. Blood samples collected at predetermined time points were processed to quantify serum levels of biomarkers, including interleukin (IL)-17A, IL-17F, and IL-22 by high sensitivity methods. IL-17A, IL-17F and IL-22 are the main cytokines released by Th17 cells. Plasma levels of Compound 1 were measured to assess pharmacokinetics in the study population.
(§2) Two study interventions were used, Compound 1 and placebo. The Compound 1 intervention comprised 4× tablets of Compound 1 50 mg twice daily, i.e. 200 mg BID, for 4 weeks. The placebo intervention was 4× tablets of placebo twice daily for 4 weeks. Tablets were administered orally.
(§3) Blood samples were processed for analysis of IL-17A, IL-17F and IL-22 in serum samples by high sensitivity methods. Samples were collected according to the schedule of activity described above.
(§4) As indicated above, peripheral blood samples collected at predetermined time points were processed to quantify serum levels of biomarkers of psoriasis including IL-17A, IL-17F, and IL-22. Levels of IL-17A and IL-17F were quantified using a single molecule counting sandwich immunoassay (SMCxPro™, Millipore—see also Hwang et al., Methods (2019) 158:69-76). Levels of IL-22 were quantified using a single-molecule array ELISA (SIMOA™, Myriad RBM—see also Rissin et al., Anal Chem (2011) 83(6):2279-2285). Statistical analysis was based on geometric mean ratio to baseline; a two-sample t-test at significance alpha level of 5% was used for calculation of the p-values.

[1] = Plasma levels of Compound 1 in the study population (pharmacokinetics); settings: 200 mg BID oral, fed
Description: as §1, §2
The interventions were used in two arms of the study. Arm 1 was the experimental arm and it involved participants receiving 200 mg of Compound BID for 4 weeks under fed conditions. […]

IL-17F = experiment: Serum levels of biomarker IL-17F (single molecule counting sandwich immunoassay)
Description: as §1, §2, §3, §4

IL-22 = experiment: Serum levels of biomarker IL-22 (single-molecule array ELISA)
Description: as §1, §2, §3, §4

[2] = system: patients with mild to moderate psoriasis; experiment: Clinical response by static Investigator's Global Assessment (sIGA) score, phase 1 placebo-controlled study; settings: 200 mg BID
Description: A double-blind, randomized, placebo-controlled phase 1 study was carried out in participants with mild to moderate psoriasis. Study participants were randomized to 200 mg twice a day (BID) of Compound 1 or placebo in 2:1 ratio (approximately 24 in the treatment group and 12 in the placebo group). The study comprised an up to 4-week screening period, and a 4-week treatment period with Compound 1 or placebo. An end-of-study visit was carried out 10±3 days after the last investigational medicinal product (IMP) administration.
as §2
The interventions were used in two arms of the study. Arm 1 was the experimental arm and it involved participants receiving 200 mg of Compound BID for 4 weeks under fed conditions. Arm 2 was the placebo arm and it involved participants receiving the matching placebo tablets for 4 weeks under fed conditions.
The sIGA employed in this study is a six-point ordinal scale used to assess the global severity of disease over the body as a whole, as measured by the overall degree of induration, scaling and erythema of a subject's psoriatic lesions. For statistical analysis, the scale was assigned scores of 0 to 5, for ‘clear’ to ‘very severe’, respectively.
Scoring was accorded to a subject on a scale of 0 to 5 for each of erythema, induration, and scaling; a mean sIGA score was calculated as the mean average of those individual scores and this was translated into an overall sIGA score (an integer between 0 and 5) as described in the tables below:
The sIGA score was assessed as described herein.

CN1C(=O)c2cccc(OC(F)F)c2[C@H]2C[C@@H]1c1nc3ccc(-c4cnc(C5(N)CCC5)nc4)cc3n12 [Compound 1, (7R,14R)-11-[2-(1-aminocyclobutyl)pyrimidin-5-yl]-1-(difluoromethoxy)-6-methyl-6,7-dihydro-7,14-methanobenzimidazo[1,2-b][2,5]benzodiazocin-5(14H)-one]
Serum level of IL-17A (in words) (IL-17A; after treatment for 4 weeks): substantially decreased
Serum level of IL-17A, geometric mean (geometric SE) (IL-17A; baseline (before treatment)): 0.62 (1.15) pg/mL
Serum level of IL-17A, geometric mean (geometric SE) (IL-17A; week 2, 200 mg BID): 0.56 (1.13) pg/mL
Serum level of IL-17A, geometric mean (geometric SE) (IL-17A; week 4, 200 mg BID): 0.45 (1.14) pg/mL
Mean pre-dose plasma levels / steady state (in words) ([1]; Day 8 through Day 29): steady state was achieved within the first week and maintained until the end of the treatment
Mean pre-dose and post-dose plasma concentrations (in words) ([1]; compared with previous study in healthy participants): consistent with analogous values observed at the same dose in a previous study in healthy participants; also recorded: consistent with pharmacokinetic data previously obtained in healthy participants
Serum level of IL-17F (in words) (IL-17F; after treatment for 4 weeks): substantially decreased
Serum level of IL-17F, geometric mean (geometric SE) (IL-17F; baseline (before treatment)): 2.63 (1.19) pg/mL
Serum level of IL-17F, geometric mean (geometric SE) (IL-17F; week 2, 200 mg BID): 1.65 (1.21) pg/mL
Serum level of IL-17F, geometric mean (geometric SE) (IL-17F; week 4, 200 mg BID): 1.35 (1.21) pg/mL
Serum level of IL-22 (in words) (IL-22; after treatment for 4 weeks): substantially decreased
Serum level of IL-22, geometric mean (geometric SE) (IL-22; baseline (before treatment)): 4.13 (1.19) pg/mL
Serum level of IL-22, geometric mean (geometric SE) (IL-22; week 2, 200 mg BID): 2.86 (1.18) pg/mL
Serum level of IL-22, geometric mean (geometric SE) (IL-22; week 4, 200 mg BID): 2.49 (1.15) pg/mL
change in sIGA score (in words) ([2]; compared with placebo): clinically important change in sIGA score after 4 weeks of treatment; also recorded: a higher percentage of patients receiving Compound 1 improved from ‘moderate’ disease at baseline, to ‘mild’ or ‘almost clear’ at week 2 and week 4
% of subjects with no change in sIGA from baseline ([2]; week 2): 68.0%
% of subjects with sIGA change from baseline of −1 ([2]; week 2): 32.0%
Number of subjects with no change in sIGA from baseline ([2]; week 2): 17
Number of subjects with sIGA change from baseline of +1 ([2]; week 2): 0
Number of subjects with sIGA change from baseline of −1 ([2]; week 2): 8
% of subjects with no change in sIGA from baseline ([2]; week 4): 38.5%
% of subjects with sIGA change from baseline of +1 ([2]; week 4): 4.2%
Number of subjects with no change in sIGA from baseline ([2]; week 4): 9
Number of subjects with sIGA change from baseline of +1 ([2]; week 4): 1
Number of subjects with sIGA change from baseline of −1 ([2]; week 4): 14
% of subjects with sIGA change from baseline of −1 (improvement by at least 1 severity level) ([2]; week 4, placebo 0%): 58.3%
